Source: patent publication US7192924B2, “Corticotropin releasing factor 2 receptor agonists” (priority 2002, dated 2007)
Peptide text beside a SMILES is read from it.

How the values were obtained:
[1] = target: T1, CRF1R (Homo sapiens, UniProt P34998); assay: CRF1R agonist activity (EC50, Emax), called comparative CRF binding; format: cell-based; details: read-out: CRF1R EC50
T1 sequence (P34998 24-415): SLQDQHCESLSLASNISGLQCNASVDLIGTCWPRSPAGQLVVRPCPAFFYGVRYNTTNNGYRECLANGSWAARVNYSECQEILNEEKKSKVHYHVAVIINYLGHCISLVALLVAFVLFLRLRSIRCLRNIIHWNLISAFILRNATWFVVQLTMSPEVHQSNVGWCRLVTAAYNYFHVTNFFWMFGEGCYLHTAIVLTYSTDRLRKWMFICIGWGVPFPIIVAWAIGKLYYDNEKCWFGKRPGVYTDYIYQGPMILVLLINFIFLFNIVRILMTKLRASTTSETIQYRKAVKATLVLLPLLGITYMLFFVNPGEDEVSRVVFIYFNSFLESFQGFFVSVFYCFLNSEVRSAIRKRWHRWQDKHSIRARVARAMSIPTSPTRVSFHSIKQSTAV
Description: (§1) The pharmacological activity and selectivity of the peptides of present invention can be determined using published test procedures. See, e.g, U.S. patent application Ser. No. 09/799,978. Because CRF2R and CRF1R are homologous proteins, it is expected that a certain proportion of agonists for CRF2R will also function as agonists of CRF1R. As discussed above, activation of CRF1R induces activation of the HPA axis since increased corticosteroid production leads to skeletal muscle atrophy. In most cases in which an increase in muscle mass or function is desired, it is not desirable to activate the HPA axis.
(§2) Because it is desirable to discriminate binding between CRF2R, as compared with CRF1R, the assays described above may be conducted using a cell, or membrane from a cell, which expresses only CRF2R or the assays can be conducted with a recombinant source of CRF2R. Cells expressing both forms of CRFR may be modified using homologous recombination to inactivate or otherwise disable the CRF1R gene. Alternatively, if the source of CRFR contains more than one CRFR type, the background signal produced by the receptor which is not of interest must be subtracted from the signal obtained in the assay. […] Known antagonists of CRFRs include, but, are not limited to, antalarmin (CRF1R selective), antisauvagine-30 (CRF2R selective) and astressin (nonselective for CRF1R/CRF2R).
(§3) Cell-based assays include the steps of contacting cells which express CRF1R or CRF2R with a peptide of the present invention or control and measuring activation of the CRFR by measuring the expression or activity of components of the CRFR signal transduction pathways.
(§4) As described in the background section above, CRFRs appear to couple through several different pathways including Gαs, Gαq or Gαi, depending upon the cell type. It is thought that agonist activation of CRFR allows the receptor to signal via any of these pathways, provided that the necessary pathway components are present in the particular cell type. Thus, to assay a particular peptide of the present invention for CRFR activation, an assay can use any of the signal transduction pathways as the readout even if the relevant cell type for treatment, in vivo, couples CRFR to skeletal muscle atrophy via a different pathway. […] Assays for measuring activation of these signaling pathways are known in the art.
(§5) For example, after contact with a peptide of the present invention, lysates of the cells can be prepared and assayed for induction of cAMP. cAMP is induced in response to Gαs activation. Because Gαs is activated by receptors other than CRFR and because a test peptide may be exerting its effect through CRFRs or by another mechanism, two control comparisons are relevant for determining whether the peptide increases levels of cAMP via activation of a CRFR. One control compares the cAMP level of cells contacted with the peptide and the cAMP level of cells contacted with a control compound (i.e., the vehicle in which the peptide is dissolved).
(§6) In one example, cAMP induction is measured with the use of DNA constructs containing the cAMP responsive element linked to any of a variety of reporter genes can be introduced into cells expressing CRFRs. Such reporter genes include, but are not limited to, chloramphenicol acetyltransferase (CAT), luciferase, glucuronide synthetase, growth hormone, fluorescent proteins (e.g., Green Fluorescent Protein), or alkaline phosphatase. Following exposure of the cells to the peptide, the level of reporter gene expression can be quantitated to determine the peptide's ability to increase cAMP levels and thus determine the peptide's ability to activate the CRFR.
(§7) In addition to using cells expressing full length CRFRs, cells can be engineered which express CRFRs containing the ligand binding domain of the receptor coupled to, or physically modified to contain, reporter elements or to interact with signaling proteins.

[2] = target: T2, CRF2R (Homo sapiens, UniProt Q13324); assay: CRF2R agonist activity (EC50, Emax), called comparative CRF binding; format: cell-based; details: read-out: CRF2R EC50
T2 sequence (Q13324 1-411): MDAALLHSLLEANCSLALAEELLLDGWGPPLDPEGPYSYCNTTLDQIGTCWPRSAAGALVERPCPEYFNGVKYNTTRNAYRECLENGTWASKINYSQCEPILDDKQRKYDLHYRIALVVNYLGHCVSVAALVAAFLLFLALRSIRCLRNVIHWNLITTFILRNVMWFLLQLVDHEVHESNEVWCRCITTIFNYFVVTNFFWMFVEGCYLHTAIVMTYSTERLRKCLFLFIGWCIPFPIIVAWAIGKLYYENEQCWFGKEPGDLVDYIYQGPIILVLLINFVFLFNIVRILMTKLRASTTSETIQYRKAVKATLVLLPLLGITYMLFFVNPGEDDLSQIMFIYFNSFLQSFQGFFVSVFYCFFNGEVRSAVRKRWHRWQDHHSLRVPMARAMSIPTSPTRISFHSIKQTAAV
Description: as §1, §2, §3, §4, §5, §6, §7

CC[C@H](C)[C@H](N)C(=O)N[C@H](C(=O)N[C@@H](CC(C)C)C(=O)N[C@@H](CO)C(=O)N[C@@H](CC(C)C)C(=O)N[C@@H](CC(=O)O)C(=O)N[C@H](C(=O)N1CCC[C@H]1C(=O)N[C@H](C(=O)NCC(=O)N[C@@H](CC(C)C)C(=O)N[C@@H](CC(C)C)C(=O)N[C@@H](CCC(N)=O)C(=O)N[C@H](C(=O)N[C@@H](CC(C)C)C(=O)N[C@@H](CC(C)C)C(=O)N[C@@H](CCC(=O)O)C(=O)N[C@@H](CCC(N)=O)C(=O)N[C@@H](CCC(=O)O)C(=O)N[C@@H](CCCCN)C(=O)N[C@@H](C)C(=O)N[C@@H](CCCNC(=N)N)C(=O)N[C@@H](C)C(=O)N[C@@H](C)C(=O)N[C@@H](CCCNC(=N)N)C(=O)N[C@@H](CCC(=O)O)C(=O)N[C@@H](CCC(N)=O)C(=O)N[C@@H](C)C(=O)N[C@H](C(=O)N[C@H](C(=O)N[C@@H](CC(N)=O)C(=O)N[C@@H](C)C(=O)N[C@@H](CCCNC(=N)N)C(=O)N[C@H](C(=O)N[C@@H](CC(C)C)C(=O)N[C@@H](C)C(=O)N[C@@H](CCCNC(=N)N)C(=O)N[C@H](C(N)=O)C(C)C)[C@@H](C)CC)[C@@H](C)O)[C@@H](C)O)[C@@H](C)CC)[C@@H](C)CC)C(C)C)C(C)C [compound 107] (H-IVLSLDVPIGLLQILLEQEKARAAREQATTNARILARV-NH2)
EC50 [1]: ≥ 1000 nM

CC[C@H](C)[C@H](N)C(=O)N[C@H](C(=O)N[C@@H](CC(C)C)C(=O)N[C@@H](CO)C(=O)N[C@@H](CC(C)C)C(=O)N[C@@H](CC(=O)O)C(=O)N[C@H](C(=O)N1CCC[C@H]1C(=O)N[C@H](C(=O)NCC(=O)N[C@@H](CC(C)C)C(=O)N[C@@H](CC(C)C)C(=O)N[C@@H](CCC(N)=O)C(=O)N[C@H](C(=O)N[C@@H](CC(C)C)C(=O)N[C@@H](CC(C)C)C(=O)N[C@@H](CCC(=O)O)C(=O)N[C@@H](CCC(N)=O)C(=O)N[C@@H](CCC(=O)O)C(=O)N[C@@H](CCCCN)C(=O)N[C@@H](C)C(=O)N[C@@H](CCCNC(=N)N)C(=O)N[C@@H](C)C(=O)N[C@@H](C)C(=O)N[C@@H](CCCNC(=N)N)C(=O)N[C@@H](CCC(=O)O)C(=O)N[C@@H](CCC(N)=O)C(=O)N[C@@H](C)C(=O)N[C@H](C(=O)N[C@H](C(=O)N[C@@H](CC(N)=O)C(=O)N[C@@H](C)C(=O)N[C@@H](CCCNC(=N)N)C(=O)N[C@H](C(=O)N[C@@H](CC(C)C)C(=O)N[C@@H](C)C(=O)N[C@@H](CCCNC(=N)N)C(=O)N[C@H](C(N)=O)C(C)C)[C@@H](C)CC)[C@@H](C)O)[C@@H](C)O)[C@@H](C)CC)[C@@H](C)CC)C(C)C)C(C)C [compound 325] (H-IVLSLDVPIGLLQILLEQEKARAAREQATTNARILARV-NH2)
EC50 [2]: 11.7 nM

CC[C@H](C)[C@H](NC(=O)[C@H](C)NC(=O)[C@H](CC(N)=O)NC(=O)[C@H](CCC(N)=O)NC(=O)[C@H](CCC(=O)O)NC(=O)[C@H](C)NC(=O)[C@H](CCCNC(=N)N)NC(=O)[C@H](CCC(=O)O)NC(=O)[C@H](CCCNC(=N)N)NC(=O)[C@H](CCC(N)=O)NC(=O)[C@H](CO)NC(=O)[C@H](CCC(N)=O)NC(=O)[C@@H](NC(=O)[C@H](CCCCN)NC(=O)[C@H](CCC(=O)O)NC(=O)[C@H](CC(C)C)NC(=O)[C@H](CCC(=O)O)NC(=O)[C@H](CC(C)C)NC(=O)[C@H](CC(C)C)NC(=O)[C@@H](NC(=O)[C@H](CCCNC(=N)N)NC(=O)[C@H](CC(C)C)NC(=O)[C@H](CC(C)C)NC(=O)[C@H](CC(C)C)NC(=O)[C@H](CC(C)C)NC(=O)[C@@H]1CCCN1C(=O)[C@H](CC(C)C)NC(=O)[C@H](CC(=O)O)NC(=O)[C@@H](NC(=O)[C@H](CO)NC(=O)[C@H](CC(C)C)NC(=O)[C@H](CO)NC(=O)[C@@H]1CCCN1C(=O)[C@H](CC(N)=O)NC(=O)[C@@H](N)CC(=O)O)[C@@H](C)CC)[C@@H](C)O)[C@@H](C)O)C(=O)N[C@H](C(=O)N[C@@H](Cc1ccccc1)C(=O)N[C@@H](C)C(=O)N[C@@H](CO)C(=O)N[C@H](C(N)=O)C(C)C)[C@@H](C)CC [compound 346] (H-DNPSLSIDLPLLLLRTLLELEKTQSQRERAEQNAIIFASV-NH2)
EC50 [2]: 8.48 nM

CC[C@H](C)[C@H](NC(=O)[C@H](C)NC(=O)[C@H](CC(N)=O)NC(=O)[C@H](CCC(N)=O)NC(=O)[C@H](CCC(=O)O)NC(=O)[C@H](C)NC(=O)[C@H](CCCNC(=N)N)NC(=O)[C@H](CCC(=O)O)NC(=O)[C@H](CCCNC(=N)N)NC(=O)[C@H](CCC(N)=O)NC(=O)[C@H](CO)NC(=O)[C@H](CCC(N)=O)NC(=O)[C@@H](NC(=O)[C@H](CCCCN)NC(=O)[C@H](CCC(=O)O)NC(=O)[C@H](CC(C)C)NC(=O)[C@H](CCC(=O)O)NC(=O)[C@H](CC(C)C)NC(=O)[C@H](CC(C)C)NC(=O)[C@@H](NC(=O)[C@H](CCCNC(=N)N)NC(=O)[C@H](CC(C)C)NC(=O)[C@H](CC(C)C)NC(=O)[C@H](CC(C)C)NC(=O)[C@H](CC(C)C)NC(=O)[C@@H]1CCCN1C(=O)[C@H](CC(C)C)NC(=O)[C@H](CC(=O)O)NC(=O)[C@@H](NC(=O)[C@H](CO)NC(=O)[C@H](CC(C)C)NC(=O)[C@H](CO)NC(=O)[C@@H]1CCCN1)[C@@H](C)CC)[C@@H](C)O)[C@@H](C)O)C(=O)N[C@H](C(=O)N[C@@H](Cc1ccccc1)C(=O)N[C@@H](C)C(=O)N[C@@H](CO)C(=O)N[C@H](C(N)=O)C(C)C)[C@@H](C)CC [compound 348] (H-PSLSIDLPLLLLRTLLELEKTQSQRERAEQNAIIFASV-NH2)
EC50 [2]: 5.77 nM

CC[C@H](C)[C@H](N)C(=O)N[C@H](C(=O)N[C@@H](CC(C)C)C(=O)N[C@@H](CO)C(=O)N[C@@H](CC(C)C)C(=O)N[C@@H](CC(=O)O)C(=O)N[C@H](C(=O)N1CCC[C@H]1C(=O)N[C@H](C(=O)NCC(=O)N[C@@H](CC(C)C)C(=O)N[C@@H](CC(C)C)C(=O)N[C@@H](CCC(N)=O)C(=O)N[C@H](C(=O)N[C@@H](CC(C)C)C(=O)N[C@@H](CC(C)C)C(=O)N[C@@H](CCC(=O)O)C(=O)N[C@@H](CCC(N)=O)C(=O)N[C@@H](C)C(=O)N[C@@H](CCCNC(=N)N)C(=O)N[C@@H](C)C(=O)N[C@@H](CCCNC(=N)N)C(=O)N[C@@H](C)C(=O)N[C@@H](C)C(=O)N[C@@H](CCCNC(=N)N)C(=O)N[C@@H](CCC(=O)O)C(=O)N[C@@H](CCC(N)=O)C(=O)N[C@@H](C)C(=O)N[C@H](C(=O)N[C@H](C(=O)N[C@@H](CC(N)=O)C(=O)N[C@@H](C)C(=O)N[C@@H](CCCNC(=N)N)C(=O)N[C@H](C(=O)N[C@@H](CC(C)C)C(=O)N[C@@H](C)C(=O)N[C@@H](CCCNC(=N)N)C(=O)N[C@H](C(=O)N[C@@H](CCSC)C(N)=O)C(C)C)[C@@H](C)CC)[C@@H](C)O)[C@@H](C)O)[C@@H](C)CC)[C@@H](C)CC)C(C)C)C(C)C [compound 356] (H-IVLSLDVPIGLLQILLEQARARAAREQATTNARILARVM-NH2; N-terminus assumed)
EC50 [2]: 83 nM
